Experimental data: patent publication US20250081967A1, “PESTICIDALLY ACTIVE HETEROCYCLIC DERIVATIVES WITH SULFOXIMINE CONTAINING SUBSTITUENTS” (SYNGENTA CROP PROTECTION AG, priority 2021, published 2025)

Key:
Type in all cases: in vivo
Myzus persicae [1] = experiment: Activity against Myzus persicae (green peach aphid), systemic activity, pea seedlings; settings: for mortality at 24 ppm: Myzus persicae, 144 h, test rate 24 ppm, systemic, 6 days after placing seedlings in test solutions
Method: Example B5: Activity Against Myzus persicae (Green Peach Aphid) Systemic Activity
Roots of pea seedlings infested with an aphid population of mixed ages were placed directly in the aqueous test solutions prepared from 10′000 DMSO stock solutions. The samples were assessed for mortality 6 days after placing seedlings in test solutions.

Spodoptera littoralis = experiment: Activity against Spodoptera littoralis (Egyptian cotton leaf worm), cotton leaf discs; settings: foliar, 72 h, application rate 200 ppm, L1 larvae, 3 days after infestation, read-out: control (mortality, anti-feeding effect or growth inhibition)
Method: Example B1: Activity Against Spodoptera littoralis (Egyptian Cotton Leaf Worm)
Cotton leaf discs were placed onto agar in 24-well microtiter plates and sprayed with aqueous test solutions prepared from 10′000 ppm DMSO stock solutions. After drying the leaf discs were infested with five L1 larvae. The samples were assessed for mortality, anti-feeding effect, and growth inhibition in comparison to untreated samples 3 days after infestation. Control of Spodoptera littoralis by a test sample is given when at least one of the categories mortality, anti-feedant effect, and growth inhibition is higher than the untreated sample.

Euschistus heros = experiment: Activity against Euschistus heros (neotropical brown stink bug), soybean leaf; settings: 120 h, application rate 200 ppm, N-2 nymphs, 5 days after infestation, read-out: effect in at least one of the two categories (mortality or growth inhibition)
Method: Example B7: Activity Against Euschistus heros (Neotropical Brown Stink Bug)
Soybean leaf on agar in 24-well microtiter plates were sprayed with aqueous test solutions prepared from 10′000 ppm DMSO stock solutions. After drying the leaf were infested with N-2 nymphs. The samples were assessed for mortality and growth inhibition in comparison to untreated samples 5 days after infestation.

Myzus persicae [2] = experiment: Activity against Myzus persicae (green peach aphid), feeding/contact activity, sunflower leaf discs; settings: Myzus persicae, foliar; for mortality at 200 ppm: 144 h, application rate 200 ppm, feeding/contact, 6 days after infestation
Method: Example B4: Activity Against Myzus persicae (Green Peach Aphid) Feeding/Contact Activity
Sunflower leaf discs were placed on agar in a 24-well microtiter plate and sprayed with aqueous test solutions prepared from 10′000 ppm DMSO stock solutions. After drying, the leaf discs were infested with an aphid population of mixed ages. The samples were assessed for mortality 6 days after infestation.

Bemisia tabaci = experiment: Activity against Bemisia tabaci (cotton white fly), cotton leaf discs; settings: foliar; for mortality at 200 ppm: 144 h, application rate 200 ppm, adult white flies, 6 days after incubation
Method: Example B6: Activity Against Bemisia tabaci (Cotton White Fly)
Cotton leaf discs were placed on agar in 24-well microtiter plates and sprayed with aqueous test solutions prepared from 10′000 ppm DMSO stock solutions. After drying the leaf discs were infested with adult white flies. The samples were checked for mortality 6 days after incubation.

Diabrotica balteata = experiment: Activity against Diabrotica balteata (corn root worm), maize sprouts; settings: for percent effect (mortality or growth inhibition) at 200 ppm: 96 h, application rate 200 ppm, L2 larvae, 4 days after infestation, read-out: effect in at least one of the two categories (mortality or growth inhibition)
Method: Example B3: Activity Against Diabrotica Balteata (Corn Root Worm)
Maize sprouts placed onto an agar layer in 24-well microtiter plates were treated with aqueous test solutions prepared from 10′000 ppm DMSO stock solutions by spraying. After drying, the plates were infested with L2 larvae (6 to 10 per well). The samples were assessed for mortality and growth inhibition in comparison to untreated samples 4 days after infestation.

Plutella xylostella = experiment: Activity against Plutella xylostella (diamond back moth), artificial diet, eggs; settings: 192 h, application rate 200 ppm, 8 days after infestation, read-out: effect in at least one of the two categories (mortality or growth inhibition)
Method: Example B9: Activity Against Plutella xylostella (Diamond Back Moth)
24-well microtiter plates with artificial diet were treated with aqueous test solutions prepared from 10′000 ppm DMSO stock solutions by pipetting. After drying, Plutella eggs were pipetted through a plastic stencil onto a gel blotting paper and the plate was closed with it. The samples were assessed for mortality and growth inhibition in comparison to untreated samples 8 days after infestation.

`CCS(=N)(=O)c1cc(OC(C)(C)C#N)cnc1-c1cn2cnc(SC(F)(F)F)cc2n1` (single isomer, unassigned) [Compound P7-A, 2-[[5-(ethylsulfonimidoyl)-6-[7-(trifluoromethylsulfanyl)imidazo[1,2-c]pyrimidin-2-yl]-3-pyridyl]oxy]-2-methyl-propanenitrile] was tested, and the mortality at 24 ppm (Myzus persicae [1]) was no less than 80%, the percent control (mortality, anti-feedant effect or growth inhibition) at 200 ppm (Spodoptera littoralis) was no less than 80% and the percent effect (mortality or growth inhibition) at 200 ppm (Euschistus heros) was no less than 80%. It also gave a mortality at 200 ppm (Myzus persicae [2]) of no less than 80%, a mortality at 200 ppm (Bemisia tabaci) of no less than 80% and a mortality at 50 ppm (Bemisia tabaci; concentration 50 ppm) of 80%. It also gave a percent effect (mortality or growth inhibition) at 200 ppm (Diabrotica balteata) of no less than 80%.

`CCn1c(C(F)(F)F)cc2nc(-c3ncc(C4(C#N)CC4)cc3S(=N)(=O)CC)n(C)c2c1=O` (single isomer, unassigned) [Compound P14-A, 1-[6-[5-ethyl-3-methyl-4-oxo-6-(trifluoromethyl)imidazo[4,5-c]pyridin-2-yl]-5-(ethylsulfonimidoyl)-3-pyridyl]cyclopropanecarbonitrile] showed a mortality at 24 ppm (Myzus persicae [1]) of no less than 80%, a percent control (mortality, anti-feedant effect or growth inhibition) at 200 ppm (Spodoptera littoralis) of no less than 80% and a percent effect (mortality or growth inhibition) at 200 ppm (Plutella xylostella) of no less than 80%. For the same molecule, the percent effect (mortality or growth inhibition) at 200 ppm (Euschistus heros) was no less than 80%, the mortality at 200 ppm (Myzus persicae [2]) was no less than 80% and the mortality at 200 ppm (Bemisia tabaci) was no less than 80%. For the same molecule, the percent effect (mortality or growth inhibition) at 200 ppm (Diabrotica balteata) was no less than 80% and the “Mortality (%)” value (Diabrotica balteata; concentration 50 ppm) was 80%.

In the case of `CCS(=N)(=O)c1cc(OC(C)(C)C#N)c(C)nc1-c1nc2cc(C(F)(F)F)cnc2n1C` (single isomer, unassigned) [Compound P5-B, 2-[[5-(ethylsulfonimidoyl)-2-methyl-6-[3-methyl-6-(trifluoromethyl)imidazo[4,5-b]pyridin-2-yl]-3-pyridyl]oxy]-2-methyl-propanenitrile], the “Mortality (%)” value (Myzus persicae [1]; Myzus persicae (systemic), concentration 24 ppm) is reported as 100%, the percent effect (mortality or growth inhibition) at 200 ppm (Plutella xylostella) is reported as no less than 80% and the percent effect (mortality or growth inhibition) at 200 ppm (Euschistus heros) is reported as no less than 80%. For the same molecule, the “Mortality (%)” value (Diabrotica balteata; concentration 3.125 ppm) was 100%.

`CCS(=N)(=O)c1cc(OC(C)(C)C#N)cnc1-c1nc2cc(C(F)(F)F)n(C3CC3)c(=O)c2n1C` (single isomer, unassigned) [Compound P1-A, 2-[[6-[5-cyclopropyl-3-methyl-4-oxo-6-(trifluoromethyl)imidazo[4,5-c]pyridin-2-yl]-5-(ethylsulfonimidoyl)-3-pyridyl]oxy]-2-methyl-propanenitrile] was tested, and the mortality at 24 ppm (Myzus persicae [1]) was no less than 80%, the percent control (mortality, anti-feedant effect or growth inhibition) at 200 ppm (Spodoptera littoralis) was no less than 80% and the percent effect (mortality or growth inhibition) at 200 ppm (Euschistus heros) was no less than 80%. The mortality at 200 ppm (Myzus persicae [2]) was no less than 80%, the mortality at 50 ppm (Myzus persicae [2]; Myzus persicae (contact), concentration 50 ppm) was 100% and the mortality at 200 ppm (Bemisia tabaci) was no less than 80%. The percent effect (mortality or growth inhibition) at 200 ppm (Diabrotica balteata) was no less than 80%.

`CCS(=N)(=O)c1cc(C2(C#N)CC2)cnc1-c1nc2cc(C(F)(F)F)n(OC)c(=O)c2n1C` (single isomer, unassigned) [Compound P8-A, 1-[5-(ethylsulfonimidoyl)-6-[5-methoxy-3-methyl-4-oxo-6-(trifluoromethyl)imidazo[4,5-c]pyridin-2-yl]-3-pyridyl]cyclopropanecarbonitrile] was tested, and the mortality at 24 ppm (Myzus persicae [1]) was no less than 80%, the percent control (mortality, anti-feedant effect or growth inhibition) at 200 ppm (Spodoptera littoralis) was no less than 80% and the percent effect (mortality or growth inhibition) at 200 ppm (Euschistus heros) was no less than 80%. For the same molecule, the mortality at 200 ppm (Myzus persicae [2]) was no less than 80%, the mortality at 200 ppm (Bemisia tabaci) was no less than 80% and the percent effect (mortality or growth inhibition) at 200 ppm (Diabrotica balteata) was no less than 80%.

Molecule `CCS(=N)(=O)c1cc(OC(C)(C)C#N)c(C)nc1-c1nc2cc(C(F)(F)F)ncc2n1C` (single isomer, unassigned) [Compound P17-B, 2-[[5-(ethylsulfonimidoyl)-2-methyl-6-[3-methyl-6-(trifluoromethyl)imidazo[4,5-c]pyridin-2-yl]-3-pyridyl]oxy]-2-methyl-propanenitrile] has a percent control (mortality, anti-feedant effect or growth inhibition) at 200 ppm (Spodoptera littoralis) of no less than 80% and a percent effect (mortality or growth inhibition) at 200 ppm (Euschistus heros) of no less than 80%.
